Source: patent publication US12239643B2, “Therapeutic agent for inflammatory diseases, autoimmune diseases, fibrotic diseases, and cancer diseases” (MEIJI SEIKA PHARMA CO., LTD., priority 2018, dated 2025)
Like-named read-outs stand apart in the source and are kept apart here.

Test system: PDE4
Assay: Evaluation of PDE4 inhibitory activity, scintillation proximity assay
Assay type: biochemical
Details: scintillation proximity assay
Outline: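 SPA with [2,8-3H]-cAMP and diluted PDE4 enzyme preparation in 50 mM Tris-HCl pH 7.4, 8.3 mM MgCl2, 1.7 mM EGTA, 3 mg/mL BSA, 120 min at room temperature. Product captured on ZnSO4-containing YSi-SPA beads, scintillation counted; IC50 from inhibition curves vs DMSO control and no-enzyme blank.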

[1] = class symbols of Evaluation 1, read-out: PDE4 Inhibitory Activity (concentration for the inhibition rate of 50%, IC50), Evaluation 1
[2] = read-out: PDE4 Inhibitory Activity (Evaluation 1; concentration for the inhibition rate of 50%)

SMILES | IC50 [1] [nM] | IC50 [2] [nM]
CCOC(=O)c1cc(-c2nccs2)c2oc(N3CC4CCCC(C3)N4)nc2c1C(F)(F)F [Example 164, Ethyl 2-(3,9-diazabicyclo[3.3.1]nonan-3-yl)-7-(thiazol-2-yl)-4-(trifluoromethyl)benzo[d]oxazole-5-carboxylate] | < 100 | –
CCOC(=O)c1cc(-c2nccs2)c2oc(N3CC4CC(C3)N4)nc2c1C(F)(F)F [Example 165, Ethyl 2-(3,6-diazabicyclo[3.1.1]heptan-3-yl)-7-(thiazol-2-yl)-4-(trifluoromethyl)benzo[d]oxazole-5-carboxylate] | < 100 | –
CC(C)(O)c1cc(-c2nccs2)c2oc(N3CC4CCCC(C3)N4)nc2c1C(F)(F)F [Example 166, 2-(2-(3,9-Diazabicyclo[3.3.1]nonan-3-yl)-7-(thiazol-2-yl)-4-(trifluoromethyl)benzo[d]oxazol-5-yl)propan-2-ol] | < 100 | –
COCc1cc(-c2nccs2)c2oc(N3CC4CCC(C3)N4)nc2c1C(F)(F)F [Example 167, 2-(3,8-Diazabicyclo[3.2.1]octan-3-yl)-5-(methoxymethyl)-7-(thiazol-2-yl)-4-(trifluoromethyl)benzo[d]oxazole] | < 100 | –
c1csc(-c2cc(CN3CCOCC3)cc3nc(N4CC5CCC(C4)N5)oc23)n1 [Example 168, 2-(3,8-Diazabicyclo[3.2.1]octan-3-yl)-5-(morpholinomethyl)-7-(thiazol-2-yl)benzo[d]oxazole] | < 100 | –
CN(C)Cc1cc(-c2nccs2)c2oc(N3CC4CCC(C3)N4)nc2c1 [Example 169, 1-(2-(3,8-Diazabicyclo[3.2.1]octan-3-yl)-7-(thiazol-2-yl)benzo[d]oxazol-5-yl)-N,N-dimethylmethanamine] | < 100 | –
OCc1cc(-c2nccs2)c2oc(N3CC4CCC(C3)N4)nc2c1C(F)(F)F [Example 170, (2-(3,8-Diazabicyclo[3.2.1]octan-3-yl)-7-(thiazol-2-yl)-4-(trifluoromethyl)benzo[d]oxazol-5-yl)methanol] | < 100 | –
COC(C)(C)c1cc(-c2nccs2)c2oc(N3CC4CCC(C3)N4)nc2c1C(F)(F)F [Example 171, 2-(3,8-Diazabicyclo[3.2.1]octan-3-yl)-5-(2-methoxypropan-2-yl)-7-(thiazol-2-yl)-4-(trifluoromethyl)benzo[d]oxazole] | < 100 | –
CC(C)(O)c1cc(-c2nccs2)c2oc(N3CC4CCC(C3)N4)nc2c1 [Example 172, 2-(2-(3,8-Diazabicyclo[3.2.1]octan-3-yl)-7-(thiazol-2-yl)benzo[d]oxazol-5-yl)propan-2-ol] | < 100 | –
CC(C)(O)c1cc(-c2nccs2)c2oc(N3CC4CC(C3)N4)nc2c1 [Example 173, 2-(2-(3,6-Diazabicyclo[3.1.1]heptan-3-yl)-7-(thiazol-2-yl)benzo[d]oxazol-5-yl)propan-2-ol] | < 100 | –
COC(C)(C)c1cc(-c2nccs2)c2oc(N3CC4CC(C3)N4)nc2c1 [Example 174, 2-(3,6-Diazabicyclo[3.1.1]heptan-3-yl)-5-(2-methoxypropan-2-yl)-7-(thiazol-2-yl)benzo[d]oxazole] | < 100 | –
COC(C)(C)c1cc(-c2nccs2)c2oc(N3CC4CCC(C3)N4)nc2c1 [Example 175, 2-(3,8-Diazabicyclo[3.2.1]octan-3-yl)-5-(2-methoxypropan-2-yl)-7-(thiazol-2-yl)benzo[d]oxazole] | < 100 | –
CC(C)(O)c1cc(-c2nccs2)c2oc(N3CC4CC(C3)N4)nc2c1C(F)(F)F [Example 178, 2-(2-(3,6-Diazabicyclo[3.1.1]heptan-3-yl)-7-(thiazol-2-yl)-4-(trifluoromethyl)benzo[d]oxazol-5-yl)propan-2-ol] | < 100 | –
CC(=O)c1cc(-c2nccs2)c2oc(N3CC4CCC(C3)N4)nc2c1C(F)(F)F [Example 179, 1-(2-(3,8-Diazabicyclo[3.2.1]octan-3-yl)-7-(thiazol-2-yl)-4-(trifluoromethyl)benzo[d]oxazol-5-yl)ethan-1-one] | < 100 | –
CC(=O)c1cc(-c2nccs2)c2oc(N3CC4CC(C3)N4)nc2c1C(F)(F)F [Example 180, 1-(2-(3,6-Diazabicyclo[3.1.1]heptan-3-yl)-7-(thiazol-2-yl)-4-(trifluoromethyl)benzo[d]oxazol-5-yl)ethan-1-one] | < 100 | –
CC(O)c1cc(-c2nccs2)c2oc(N3CC4CCC(C3)N4)nc2c1C(F)(F)F (stereo not drawn) [Example 181, 1-(2-(3,8-Diazabicyclo[3.2.1]octan-3-yl)-7-(thiazol-2-yl)-4-(trifluoromethyl)benzo[d]oxazol-5-yl)ethan-1-ol] | – | < 100
CC(O)c1cc(-c2nccs2)c2oc(N3CC4CC(C3)N4)nc2c1C(F)(F)F (stereo not drawn) [Example 182, 1-(2-(3,6-Diazabicyclo[3.1.1]heptan-3-yl)-7-(thiazol-2-yl)-4-(trifluoromethyl)benzo[d]oxazol-5-yl)ethan-1-ol] | – | < 100

SMILES | IC50 [1] [nM] | IC50 [2] [nM]
OC(c1cc(-c2nccs2)c2oc(N3CC4CCC(C3)N4)nc2c1C(F)(F)F)C(F)F (stereo not drawn) [Example 183, 1-(2-(3,8-Diazabicyclo[3.2.1]octan-3-yl)-7-(thiazol-2-yl)-4-(trifluoromethyl)benzo[d]oxazol-5-yl)-2,2-difluoroethan-1-ol] | – | < 100
COC(C)c1cc(-c2nccs2)c2oc(N3CC4CCC(C3)N4)nc2c1C(F)(F)F (stereo not drawn) [Example 184, 2-(3,8-Diazabicyclo[3.2.1]octan-3-yl)-5-(1-methoxyethyl)-7-(thiazol-2-yl)-4-(trifluoromethyl)benzo[d]oxazole] | – | < 100
COC(C)c1cc(-c2nccs2)c2oc(N3CC4CC(C3)N4)nc2c1C(F)(F)F (stereo not drawn) [Example 185, 2-(3,6-Diazabicyclo[3.1.1]heptan-3-yl)-5-(1-methoxyethyl)-7-(thiazol-2-yl)-4-(trifluoromethyl)benzo[d]oxazole] | – | < 100
CCOC(=O)c1cc(-c2nccs2)c2oc(N3CC4CCC(C3)N4)nc2c1OC(F)(F)F [Example 186, Ethyl 2-(3,8-diazabicyclo[3.2.1]octan-3-yl)-7-(thiazol-2-yl)-4-(trifluoromethoxy)benzo[d]oxazole-5-carboxylate] | – | < 100
CCOC(=O)c1cc(-c2nccs2)c2oc(N3CC4CC(C3)N4)nc2c1OC(F)(F)F [Example 187, Ethyl 2-(3,6-diazabicyclo[3.1.1]heptan-3-yl)-7-(thiazol-2-yl)-4-(trifluoromethoxy)benzo[d]oxazole-5-carboxylate] | – | < 100
CCOC(=O)c1cc(-c2nccs2)c2oc(N3CC4CCCC(C3)N4)nc2c1OC(F)(F)F [Example 188, Ethyl 2-(3,9-diazabicyclo[3.3.1]nonan-3-yl)-7-(thiazol-2-yl)-4-(trifluoromethoxy)benzo[d]oxazole-5-carboxylate] | – | < 100
O=C(O)c1cc(-c2nccs2)c2oc(N3CC4CCC(C3)N4)nc2c1OC(F)(F)F [Example 189, 2-(3,8-Diazabicyclo[3.2.1]octan-3-yl)-7-(thiazol-2-yl)-4-(trifluoromethoxy)benzo[d]oxazole-5-carboxylic acid] | – | 100 to 1000
O=C(O)c1cc(-c2nccs2)c2oc(N3CC4CC(C3)N4)nc2c1OC(F)(F)F [Example 190, 2-(3,6-Diazabicyclo[3.1.1]heptan-3-yl)-7-(thiazol-2-yl)-4-(trifluoromethoxy)benzo[d]oxazole-5-carboxylic acid] | – | > 1000
O=C(O)c1cc(-c2nccs2)c2oc(N3CC4CCCC(C3)N4)nc2c1OC(F)(F)F [Example 191, 2-(3,9-Diazabicyclo[3.3.1]nonan-3-yl)-7-(thiazol-2-yl)-4-(trifluoromethoxy)benzo[d]oxazole-5-carboxylic acid] | – | 100 to 1000
O=C(c1cc(-c2nccs2)c2oc(N3CC4CCC(C3)N4)nc2c1OC(F)(F)F)N1CCC1 [Example 192, (2-(3,8-Diazabicyclo[3.2.1]octan-3-yl)-7-(thiazol-2-yl)-4-(trifluoromethoxy)benzo[d]oxazol-5-yl)(azetidin-1-yl)methanone] | – | < 100
CN(CCO)C(=O)c1cc(-c2nccs2)c2oc(N3CC4CCC(C3)N4)nc2c1OC(F)(F)F [Example 193, 2-(3,8-Diazabicyclo[3.2.1]octan-3-yl)-N-(2-hydroxyethyl)-N-methyl-7-(thiazol-2-yl)-4-(trifluoromethoxy)benzo[d]oxazole-5-carboxamide] | – | < 100
O=C(c1cc(-c2nccs2)c2oc(N3CC4CCC(C3)N4)nc2c1OC(F)(F)F)N1CC(O)(C(F)(F)F)C1 [Example 194, (2-(3,8-Diazabicyclo[3.2.1]octan-3-yl)-7-(thiazol-2-yl)-4-(trifluoromethoxy)benzo[d]oxazol-5-yl)(3-hydroxy-3-(trifluoromethyl)azetidin-1-yl)methanone] | – | 100 to 1000
CC(C)(O)c1cc(-c2nccs2)c2oc(N3CC4CC(C3)N4)nc2c1OC(F)(F)F [Example 196, 2-(2-(3,6-Diazabicyclo[3.1.1]heptan-3-yl)-7-(thiazol-2-yl)-4-(trifluoromethoxy)benzo[d]oxazol-5-yl)propan-2-ol] | – | < 100
CC(C)(O)c1cc(-c2nccs2)c2oc(N3CC4CCCC(C3)N4)nc2c1OC(F)(F)F [Example 197, 2-(2-(3,9-Diazabicyclo[3.3.1]nonan-3-yl)-7-(thiazol-2-yl)-4-(trifluoromethoxy)benzo[d]oxazol-5-yl)propan-2-ol] | – | < 100
COC(C)(C)c1cc(-c2nccs2)c2oc(N3CC4CCCC(C3)N4)nc2c1OC(F)(F)F [Example 200, 2-(3,9-Diazabicyclo[3.3.1]nonan-3-yl)-5-(2-methoxypropan-2-yl)-7-(thiazol-2-yl)-4-(trifluoromethoxy)benzo[d]oxazole] | – | < 100
OCc1cc(-c2nccs2)c2oc(N3CC4CCC(C3)N4)nc2c1OC(F)(F)F [Example 201, (2-(3,8-Diazabicyclo[3.2.1]octan-3-yl)-7-(thiazol-2-yl)-4-(trifluoromethoxy)benzo[d]oxazol-5-yl)methanol] | – | < 100
